Data published in patent publication US4963530A, “Renin inhibitor peptide compounds, a process for the preparation thereof and pharmaceutical composition comprising the same” (Fujisawa Pharmaceutical Company, Ltd., priority 1987, dated 1990).
Substitutions are numbered along the chain they refer to.

Assays:
[1] = biological target: T1, endogenous renin in human plasma (Homo sapiens, UniProt P00797); assay: Test 1: inhibition of human plasma renin activity (Ang I formation, RIA); assay type: biochemical; details: human plasma pool, pH 6.0, 37° C., 90 minutes incubation, Probit method; read-out: IC50 (concentration that inhibited plasma renin activity by 50%)
T1 construct: incubation (37° C.) of the endogenous renin and angiotensinogen in plasma at pH 6.0; from tissue; host or cells: pooled human plasma (EDTA) from male volunteers
T1 sequence (P00797 67-406): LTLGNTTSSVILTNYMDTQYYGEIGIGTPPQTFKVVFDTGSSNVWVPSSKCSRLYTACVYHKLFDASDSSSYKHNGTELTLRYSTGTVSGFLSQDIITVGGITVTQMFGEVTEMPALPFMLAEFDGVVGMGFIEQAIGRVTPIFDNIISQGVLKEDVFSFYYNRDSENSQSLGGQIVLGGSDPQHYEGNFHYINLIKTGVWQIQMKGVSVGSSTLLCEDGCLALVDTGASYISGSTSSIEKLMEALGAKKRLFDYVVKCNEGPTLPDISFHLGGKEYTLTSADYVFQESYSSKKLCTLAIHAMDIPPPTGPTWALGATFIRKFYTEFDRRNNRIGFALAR
Experimental: Human plasma was collected from male volunteers pretreated with no drugs and used as a pool. Disodium salt of ethylenediaminetetraacetic acid (EDTA) was used as the anticoagulant. Plasma renin activity was measured as the rate of angiotensin I (Ang I) formation after incubation (37° C.) of the endogenous renin and angiotensinogen in plasma at pH 6.0. The incubation mixture contained 250 μl of plasma, 5 μl of (phenylmethyl)sulfonyl fluoride, 30 μl of buffer (sodium, potassium-phosphate, pH 6.0), and 15 μl of an appropriate concentration of test compound in 50% ethyl alcohol-water vehicle. The Ang I formed after 90 minutes of incubation was measured by radioimmunoassay (RIA) which was carried out with a commercial kit, RENCTK 100 (manufactured by Commissariat A L'energie Atomique). Samples were incubated in duplicate and each tube was measured in duplicate in the RIA. Percentage inhibition of plasma renin activity was calculated by comparing the amount of Ang I produced with and without a test compound. The concentration of test compound that inhibited plasma renin activity by 50% ) (IC50) was determined by Probit method.

[2] = Test 2: hypotensive effect (mean arterial blood pressure) in sodium-depleted conscious cynomolgus monkeys, oral; assay type: in vivo, cynomolgus monkeys (Macaca fascicularis); details: 32 mg/kg po, sodium-depleted (furosemide) conscious cynomolgus monkeys, MAP measured 0-6 hours
Experimental: (§1) Male or female cynomolgus monkeys (Macaca fascicularis) weighing about 2.5-3.5 kg were used. Sodium depletion was achieved by administering furosemide, 15 mg/kg subcutaneously one day before and then 10 mg/kg intravenously 30 minutes before the administration of the test compound.
(§2) Test compounds were dissolved in diluted equimolar hydrochloric acid (pH 5-6) and orally administered to conscious and trained monkeys placed in restraining chairs with pneumatic cuff positioned around the arm for oscillometric measurement of mean arterial blood pressure (MAP) (Model BP-203 NPJ, manufactured by Nippon Colin).
The MAP was measured at 0 (predosing base line), 0.5, 1, 2, 3, 4 and 6 hours after administration of the test compound. The maximum hypotensive effect was calculated as the maximum percentage fall of MAP from the pretreatment value.

[3] = biological target: T2, plasma renin activity (PRA) (Macaca fascicularis, UniProt Q6DLS0); assay: Test 2: inhibition of plasma renin activity (PRA) in sodium-depleted cynomolgus monkeys after oral dosing; assay type: in vivo, cynomolgus monkeys (Macaca fascicularis); details: cynomolgus monkey; 32 mg/kg po, sodium-depleted (furosemide) cynomolgus monkeys, plasma collected 0-6 hours after dosing; read-out: Maximum inhibition of PRA
T2 construct: plasmas were obtained for determination of plasma renin activity (PRA); from tissue; host or cells: plasma of sodium-depleted cynomolgus monkeys, collected after oral dosing
T2 sequence (Q6DLS0 67-406): T1 sequence (P00797 67-406) with T2A, I148L, S169A
Experimental: as §1, §2
Blood samples were collected at 0, 0.5, 1, 2, 4 and 6 hours after dosing from the antecubital vein of the monkey into disodium salt of EDTA coated tubes, centrifuged for 10 min (3000 rpm, 4° C.) and plasmas were obtained for determination of plasma renin activity (PRA). PRA was measured as the rate of Ang I formation with the same principle as illustrated in Test 1. 100 μl of sample plasma was mixed with 100 μl of the solution of angiotensinase inhibitors (3 mM 8-hydroxyquinoline sulfate and 5 mM 2,3-dimercaptopropanol , SB-REN-1, SORIN BIOMEDICA, Italy). Half (100 μl) of the mixture was incubated at 37° C. for one hour and Ang I formed was determined by a commercial RIA kit (DINABOTT). […] Percentage inhibition of PRA was calculated by the following formula: [formula] […]

Row | IC50 [1] [nM] | inhibition at 32 mg/kg [3] [%] | SMILES | Maximum hypotensive effect (maximum percentage fall of MAP from pretreatment value) [2] [%]
1 | 60 | – | CC(C)CC[C@H](O)[C@H](CC1CCCCC1)NC(=O)[C@H](Cc1c[nH]cn1)N(C)C(=O)[C@H](Cc1ccccc1)NC(=O)N1CCc2ccccc2C1 [Test Compound (d), 2(S)-[N-(1,2,3,4-Tetrahydroisoquinolin-2-ylcarbonyl)-L-phenylalanyl-N^α -methyl-L-histidyl]amino-1-cyclohexyl-3(S)-hydroxy-6-methylheptane] | –
2 | 21 | 96 | CC(C)CC[C@H](O)[C@H](CC1CCCCC1)NC(=O)[C@H](Cc1c[nH]cn1)N(C)C(=O)[C@H](Cc1ccccc1)NC(=O)N1CCOCC1 [Test Compound (b), 2(S)-(N-Morpholinocarbonyl-L-phenylalanyl-N^α -methyl-L-histidyl)amino-1-cyclohexyl-3(S)-hydroxy-6-methylheptane] | 25
3 | 61 | – | CC(C)CC[C@H](O)[C@H](CC1CCCCC1)NC(=O)[C@H](Cc1c[nH]cn1)NC(=O)[C@H](Cc1ccccc1)NC(=O)N1CCOCC1 [Test Compound (a), 2(S)-(N-Morpholinocarbonyl-L-phenylalanyl-L-histidyl)amino-1-cyclohexyl-3(S)-hydroxy-6-methylheptane] | –
4 | 24 | – | CC(C)CC[C@H](O)[C@H](CC1CCCCC1)NC(=O)[C@H](Cc1c[nH]cn1)N(C)C(=O)[C@H](Cc1ccccc1)NC(=O)N1CCSCC1 [Test Compound (c), 2(S)-(N-Thiomorpholinocarbonyl-L-phenylalanyl-N^α -methyl-L-histidyl)amino-1-cyclohexyl-3(S)-hydroxy-6-methylheptane] | –
